Assay results published in patent publication US20060040338A1, “Pharmacological profiling of drugs with cell-based assays” (Odyssey Thera, Inc., priority 2004, published 2006).
“Also recorded” adds a separate entry of the source.

Tests used:
Type in all cases: cell-based, human
phospho-ERK = phospho-ERK (T202/Y204) immunofluorescence high-content assay; settings: HEK293T cells; for effect on EGF-stimulated ERK phosphorylation: drug 90 min (PD98059 20 micromolar, SB203580 25 micromolar, 17-AAG 5 microM), 100 ng/ml hEGF during last 5 min; for ERK/MAP kinase phosphorylation, agent alone: isoproterenol 2 micromolar or forskolin 1 micromolar 15 min, anisomycin 10 micrograms/ml 10 min, hEGF 100 ng/ml 5 min
Protocol: (§1) We assessed the effects of the above-mentioned compounds on the three pathways and used the results to construct pharmacological profiles for the agents. Specifically we assessed changes in the phosphorylation status of the pathway ‘sentinels’ by constructing high-content, immunofluorescence assays using phospho-specific antibodies targeted to the downstream proteins in the pathways of interest. Human cells (HEK293) were treated with drugs and the phosphorylation status of the three downstream proteins was assessed in the absence or presence of epidermal growth factor (EGF). Cells were then fixed and probed with antisera generated against the phosphorylated forms of CREB (S133), ERK1/2 (phospho T*EY*), or phospho Hsp27 (S78/S82). The ERK1/2 antibodies specifically recognize the MAPK/ERK1 and MAPK/ERK2 protein kinases only when they are phosphorylated on Threonine 202 and Tyrosine 204 in the activation loop. […] Changes in the level and sub-cellular localization of a phosphorylated protein following treatment with a drug would indicate a functional connection between the drug and the pathway of interest.
(§2) Details of the methods used are as follows. HEK293T cells were seeded in black-walled, poly-lysine coated 96-well plates (Greiner) at a density of 30,000/well. After 24 hours, cells in duplicate wells were treated with combinations of different drugs and stimulus as follows: (a) 2 micromolar isoproterenol or 1 micromolar forskolin for 15 min.; (b) 25 micromolar SB203580 or vehicle (DMSO) for 90 minutes and 10 micrograms/ml anisomycin added to the cells during the last 10 min.; (c) 20 microolar PD98059, 25 micromolar SB203580, 5 microM 17-AAG or vehicle alone for 90 min. (d) as for (c), but with 100 ng/ml hEGF added to the cells during the last 5 min of drug treatment. The drugs were purchased from Calbiochem and hEGF was from Roche. Four sets of cells treated as described were prepared. The cells were rinsed once with PBS and fixed with 4% formaldehyde for 10 min. The cells were subsequently permeabilized with 0.25% Triton X-100 in PBS and incubated with 3% BSA for 30 min to block non-specific antibody binding. Each of the 4 sets of identically treated cells were then incubated with rabbit antibodies against phosphorylated CREB (Ser133), Hsp27 (Ser82), or pERK (T202/Y204) (Cell Signaling Technology, Inc.). Control wells were incubated with bovine serum albumin (BSA) in PBS. The cells were rinsed with PBS and incubated with Alexa488 conjugated goat anti-rabbit secondary antibody (Molecular Probes). Cell nuclei were stained with Hoechst33342 (Molecular Probes).
(§3) Images were acquired using Discovery-1 High Content Imaging System (Molecular Devices). Background fluorescence due to nonspecific binding by the secondary antibody was established with the use of cells that were incubated with BSA/PBS and without primary antibodies.
(§4) Raw images in 16-bit grayscale TIFF format were analyzed using ImageJ API/library (http://rsb.info.nih.gov/ij/, NIH, MD). First, images from the fluorescence channels (Hoechst and Alexa 488) were normalized using the ImageJ built-in rolling-ball algorithm [S. R. Sternberg, Biomedical image processing. Computer, 16(1), January 1983]. Next a threshold was established to separate the foreground from background. An iterative algorithm based on Particle Analyzer from ImageJ is applied to the thresholded Hoechst channel image (HI) to obtain the total cell count. The nuclear region of a cell (nuclear mask) is also derived from the thresholded HI. The positive particle mask is generated from the thresholded Alexa 488 image (YI). To calculate the global background (gBG), a histogram was obtained from the un-thresholded Alexa signal and the pixel intensity of the lowest intensity peak was identified as gBG. The Hoechst mask and Alexa mask are overlapped to define the correlated sub-regions of the cell. All means were corrected for the corresponding gBG. […]

phospho-CREB = phospho-CREB (S133) immunofluorescence high-content assay; settings: HEK293T cells; for phosphorylation of CREB (phospho-CREB intensity), agent alone / subcellular distribution of phospho-CREB: isoproterenol 2 micromolar or forskolin 1 micromolar 15 min, anisomycin 10 micrograms/ml 10 min, relative to untreated control; for phosphorylation of CREB (phospho-CREB intensity), agent alone: hEGF 100 ng/ml 5 min
Protocol: as §1, §2, §3, §4

phospho-Hsp27 = phospho-Hsp27 immunofluorescence high-content assay; settings: HEK293T cells; for effect on EGF-induced Hsp27 phosphorylation: drug 90 min (PD98059 20 micromolar, SB203580 25 micromolar), 100 ng/ml hEGF during last 5 min; for Hsp27 phosphorylation (p38 pathway), agent alone: anisomycin 10 micrograms/ml 10 min, hEGF 100 ng/ml 5 min
Protocol: as §1, §2, §3
Raw images in 16-bit grayscale TIFF format were analyzed using ImageJ API/library (http://rsb.info.nih.gov/ij/, NIH, MD). First, images from the fluorescence channels (Hoechst and Alexa 488) were normalized using the ImageJ built-in rolling-ball algorithm [S. R. Sternberg, Biomedical image processing. Computer, 16(1), January 1983]. Next a threshold was established to separate the foreground from background. An iterative algorithm based on Particle Analyzer from ImageJ is applied to the thresholded Hoechst channel image (HI) to obtain the total cell count. The nuclear region of a cell (nuclear mask) is also derived from the thresholded HI. […]

| Compound | effect on EGF-stimulated ERK phosphorylation (phospho-ERK) | effect on EGF-induced phospho-CREB (phospho-CREB; drug 90 min (PD98059 20 micromolar), 100 ng/ml hEGF during last 5 min) | effect on EGF-induced Hsp27 phosphorylation (phospho-Hsp27) | effect on anisomycin-induced phospho-Hsp27 (phospho-Hsp27; SB203580 25 micromolar 90 min, 10 micrograms/ml anisomycin during last 10 min) | phosphorylation of CREB (phospho-CREB intensity), agent alone (phospho-CREB) | subcellular distribution of phospho-CREB (phospho-CREB) | Hsp27 phosphorylation (p38 pathway), agent alone (phospho-Hsp27) | ERK/MAP kinase phosphorylation, agent alone (phospho-ERK) |
| --- | --- | --- | --- | --- | --- | --- | --- | --- |
| C=CCNC1=C2C[C@@H](C)C[C@H](OC)[C@H](O)[C@@H](C)/C=C(\C)[C@H](OC(N)=O)[C@@H](OC)/C=C\C=C(/C)C(=O)NC(=CC1=O)C2=O [17-AAG, 17-allylamino-17-demethoxygeldanamycin] | effective at reducing |  |  |  |  |  |  |  |
| COc1cccc(-c2cc(=O)c3ccccc3o2)c1N [PD98059] | significantly blocked | reduced | no effect |  |  |  |  |  |
| C[S+]([O-])c1ccc(-c2nc(-c3ccc(F)cc3)c(-c3ccncc3)[nH]2)cc1 (centres unmarked) [SB203580, 4-(4-fluorophenyl)-2-(4-methylsulfinylphenyl)-5-(4-pyridyl)1H-imidazole] | no effect |  | blocked | completely blocked |  |  |  |  |
| COc1ccc(C[C@H]2NC[C@H](O)[C@H]2OC(C)=O)cc1 [anisomycin] |  |  |  |  | little or no effect; also recorded: no effect | little or no effect | induced | no effect |
| CC(C)NCC(O)c1ccc(O)c(O)c1 (centres unmarked) [isoproterenol] |  |  |  |  | increased | predominantly nuclear pattern |  | no effects |
| EGF: epidermal growth factor; hEGF from Roche, used as pathway stimulus |  |  |  |  | induced |  | elicited p38 pathway activation | strongly stimulated |
